What was measured:
Coxsackievirus B4 = test: Antiviral activity against Coxsackievirus B4 infected in African green monkey BGM cells assessed as reduction in viral growth incubated for 0.5 hrs followed by cell infection measured after 1 hr by crystal violet staining based assay relative to control; assay type: functional; parameters: scale not given: the % may be the effect or the level left; details: time 1.5 hrs
Human adenovirus 7 = test: Antiviral activity against Human adenovirus 7 infected in human HEp-2 cells assessed as reduction in viral growth incubated for 0.5 hrs followed by cell infection measured after 1 hr by crystal violet staining based assay relative to control; assay type: functional; parameters: scale not given: the % may be the effect or the level left; details: time 1.5 hrs
Hepatovirus A = test: Antiviral activity against Hepatitis A virus HM175 infected in monkey FRhK-4 cells assessed as reduction in viral growth incubated for 0.5 hrs followed by cell infection measured after 1 hr by crystal violet staining based assay relative to control; assay type: functional; parameters: scale not given: the % may be the effect or the level left; details: time 1.5 hrs
Human alphaherpesvirus 1 = test: Antiviral activity against […] type 1 infected in African green monkey Vero cells assessed as reduction in viral growth incubated for 0.5 hrs followed by cell infection measured after 1 hr by crystal violet staining based assay relative to control; assay type: functional; parameters: scale not given: the % may be the effect or the level left; details: time 1.5 hrs
[1] = target: Human immunodeficiency virus type 1 reverse transcriptase (Human immunodeficiency virus 1, UniProt Q72547); test: Inhibition of HIV-1 reverse transcriptase using rC.dG as primer/template
[2] = Inhibition of quorum sensing system in Pseudomonas aeruginosa assessed as reduction in LasI gene expression measured per well
HepG2 = test: Cytotoxicity against human HepG2 cells assessed as cell growth inhibition incubated for 72 hrs by SRB assay; assay type: functional, cell-based; details: HepG2, 72 h
[3] = target: Coagulation factor VII/tissue factor (Homo sapiens, UniProt P08709); test: Inhibition of TF/VIIA complex (unknown origin); assay type: protein-complex assay
[4] = Inhibition of HIV reverse transcriptase; parameters: species or system Human immunodeficiency virus
[5] = target: Interleukin-6 (Homo sapiens) (UniProt P05231); test: Inhibition of IL-6 (unknown origin) relative to control; details: concentration not given here
Bacillus subtilis = test: Antibacterial activity against Bacillus subtilis assessed as zone of inhibition incubated for 24 hrs by well diffusion assay; assay type: functional
Aspergillus niger = test: Antifungal activity against Aspergillus niger assessed as zone of inhibition incubated for 24 hrs by well diffusion assay; assay type: functional
Staphylococcus aureus = test: Antibacterial activity against Staphylococcus aureus assessed as zone of inhibition incubated for 24 hrs by well diffusion assay; assay type: functional
Escherichia coli = test: Antibacterial activity against Escherichia coli assessed as zone of inhibition incubated for 24 hrs by well diffusion assay; assay type: functional

Coagulation factor VII/tissue factor, sequence (P08709 61-212 limits assumed): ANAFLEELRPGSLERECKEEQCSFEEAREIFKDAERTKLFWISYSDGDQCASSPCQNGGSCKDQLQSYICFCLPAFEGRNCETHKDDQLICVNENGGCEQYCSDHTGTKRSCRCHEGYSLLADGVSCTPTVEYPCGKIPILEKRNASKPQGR
Coagulation factor VII/tissue factor, sequence (P08709 213-466 limits assumed): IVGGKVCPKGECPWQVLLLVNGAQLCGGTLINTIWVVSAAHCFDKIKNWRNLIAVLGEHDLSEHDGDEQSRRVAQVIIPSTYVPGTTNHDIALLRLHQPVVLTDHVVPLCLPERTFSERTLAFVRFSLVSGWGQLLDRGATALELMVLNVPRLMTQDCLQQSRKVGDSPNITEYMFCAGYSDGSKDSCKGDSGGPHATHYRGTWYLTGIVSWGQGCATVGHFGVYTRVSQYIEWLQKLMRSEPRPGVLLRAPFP
Coagulation factor VII/tissue factor, sequence (P13726 33-295 partner limits assumed): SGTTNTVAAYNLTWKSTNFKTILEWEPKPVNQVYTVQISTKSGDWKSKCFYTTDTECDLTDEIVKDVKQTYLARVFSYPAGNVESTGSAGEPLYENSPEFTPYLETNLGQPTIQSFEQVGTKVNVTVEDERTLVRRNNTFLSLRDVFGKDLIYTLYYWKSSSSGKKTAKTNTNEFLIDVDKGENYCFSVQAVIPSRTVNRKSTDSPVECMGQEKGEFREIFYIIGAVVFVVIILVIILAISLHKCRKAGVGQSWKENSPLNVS
Interleukin-6 (Homo sapiens), sequence (P05231 whole entry, the tested form may be a part): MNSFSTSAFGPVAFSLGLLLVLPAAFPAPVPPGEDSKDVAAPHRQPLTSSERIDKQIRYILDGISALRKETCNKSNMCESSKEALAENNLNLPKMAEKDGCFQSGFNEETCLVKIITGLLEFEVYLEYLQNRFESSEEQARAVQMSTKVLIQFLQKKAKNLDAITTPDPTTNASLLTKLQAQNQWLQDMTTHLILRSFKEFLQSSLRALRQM

O=c1c(-c2nc3ccccc3s2)cc2c(n1NS(=O)(=O)c1ccc(Cl)cc1)CCCC2
Activity (Coxsackievirus B4): <=70% | Activity (Human adenovirus 7): <=70% | Activity (Hepatovirus A): <=70% | Activity (Human alphaherpesvirus 1): <=70%

CCc1cc(NCc2cc3ccccc3o2)c(O)nc1C
IC50 [1]: 0.33 nM

Cc1c(O)cc(CC(C)C)[nH]c1=O
MIC [2]: 6.35 µg

N#Cc1cc(-c2nc3ccccc3s2)c(=O)n(NS(=O)(=O)c2ccccc2)c1N
Activity (Coxsackievirus B4): <=70% | Activity (Human adenovirus 7): <=70% | Activity (Hepatovirus A): <=70% | Activity (Human alphaherpesvirus 1): <=70%

CC[C@@H](C)c1cc(O)c(C)c(=O)[nH]1
MIC [2]: 6.35 µg

COC(=O)c1ccccc1-n1c(N)c(C(N)=O)c(-c2ccc(C)cc2)cc1=O
IC50 (HepG2): 1340 nM

CC(C)Nc1ccc(-c2cc(C(=O)O)cc([N+](=O)[O-])c2)n(CC(=O)NCc2ccc(C(=N)N)cc2)c1=O
IC50 [3]: 118 nM

CCc1cc(NCN2C(=O)c3ccccc3C2=O)c(O)nc1C
IC50 [4]: 0.058 nM

COC(=O)c1ccccc1-n1c(N)c(C#N)c(-c2ccc(N(C)C)cc2)cc1=O
IC50 (HepG2): 2410 nM

CCc1cc(CCN2C(=O)c3ccccc3C2=O)c(O)nc1C
IC50 [4]: 6.2 nM

CC(C)Nc1ccc(-c2cc(N)cc([N+](=O)[O-])c2)n(CC(=O)NCc2ccc(C(=N)N)cc2)c1=O
IC50 [3]: 52 nM

CCc1c(O)cc(C(C)C)[nH]c1=O
MIC [2]: 6.35 µg

COc1ccc(-c2c(C(=O)Nc3ccc(O)cc3)c(N)[nH]c(=O)c2C#N)cc1
inhibition [5]: 65.1%

Cc1[nH]c(=O)c(C#N)c(-c2ccccc2Br)c1C(=O)Nc1ccccc1
diameter of the inhibition zone (DIZ) (Bacillus subtilis): 3.5 mm | diameter of the inhibition zone (DIZ) (Aspergillus niger): 3 mm | diameter of the inhibition zone (DIZ) (Staphylococcus aureus): 4.25 mm | diameter of the inhibition zone (DIZ) (Escherichia coli): 3.75 mm

CCCc1cc(O)c(CC)c(=O)[nH]1
MIC [2]: 6.35 µg

Cc1ccc(S(=O)(=O)Nn2c3c(cc(-c4nc5ccccc5s4)c2=O)CCCC3)cc1
Activity (Coxsackievirus B4): <=70% | Activity (Human adenovirus 7): <=70% | Activity (Hepatovirus A): <=70% | Activity (Human alphaherpesvirus 1): <=70%

Source: ChEMBL document CHEMBL5126538, “A score years' update in the synthesis and biological evaluation of medicinally important 2-pyridones” (Eur J Med Chem, 2022)
